Literature values as cited in patent publication US20170056383A1, “TOPICAL HERPES PAIN TREATMENT AND COMPOSITION” (priority 2015, published 2017).

Tested on: Herpes Simplex Virus lesions
Conditions: applied to the lesion

CCOC(=O)c1ccc(N)cc1 [benzocaine]
active working time: about 15 minutes
